The record followed here is ChEMBL document CHEMBL2331345, “Syntheses of lipophilic chalcones and their conformationally restricted analogues as antitubercular agents” (Bioorg Med Chem Lett, 2013).

In general, IC50 refers to the midpoint of a concentration-inhibition curve. What is called MIC is the lowest concentration that inhibits growth of the organism.

Each structure is given as a SMILES string. Converted amounts (≈) assume the structure as drawn. The source made the active and inactive calls. The calls are words filed in the database; no cut-off is given here.

One assay deals with HEK293. Description: Cytotoxicity against human HEK293 cells assessed as inhibition of cell viability after 24 hrs by MTT assay. Type of assay: cell-based. To be noted: HEK293, 24 h. (Tetrazolium dyes change colour on reduction, which living cells bring about.)
Assay [1] relates to Mycobacterium tuberculosis. The experiment in a line: Antitubercular activity against Mycobacterium tuberculosis H37Rv ATCC 27294 assessed as growth inhibition measured every 24 hrs by BACTEC radiosusceptibility assay. In kind it is functional. Conditions: H37Rv ATCC 27294, 24 h.
The test system of assay [2] is Mycobacterium tuberculosis. The experiment in a line: Antitubercular activity against Mycobacterium tuberculosis H37Rv ATCC 27294 assessed as growth inhibition at 250 ug/ml measured every 24 hrs by BACTEC radiosusceptibility assay. In kind it is functional, organism-based.
The test system of assay [3] is Mycobacterium tuberculosis. Description: Antitubercular activity against Mycobacterium tuberculosis assessed as growth inhibition. In kind it is functional.
For the next assay, the system named is Mycobacterium sp. The experiment in a line: Antibacterial activity against Mycobacterium sp. assessed as growth inhibition. In kind it is functional.
Assay [4] in a line: Selectivity ratio of IC50 for human HEK293 cells to MIC for Mycobacterium tuberculosis H37Rv ATCC 27294. In kind it is functional.

For the compound `COc1ccc(C(=O)/C(=C/c2ccc(O)cc2)c2ccccc2)cc1`, the concentration for half-maximal inhibition (IC50) in the assay on HEK293 was 50 µg/mL (≈ 151 µM). For the same compound, the MIC in assay [1] turned out to be 60 µg/mL (≈ 182 µM). For the compound `CCCCN(C)C(=O)COc1ccc(/C=C(/C(=O)c2ccc(OC)cc2)c2ccccc2)cc1`, the “growth inhibition (GI)” value in assay [2] is “inactive”. On to `COc1ccc2c(/C=C/c3ccc(OCCN4CCCC4)cc3)c(-c3ccccc3)c(=O)oc2c1`, for which the “growth inhibition (GI)” value in assay [2] was “inactive”. In the case of `COc1ccc2ccc(=O)oc2c1CC=C(C)C` [OSTHOLE], the minimal inhibitory concentration (MIC) in assay [3] amounted to 32 µg/mL (≈ 131 µM).

For `COc1cc(/C=C/c2ccccc2)oc(=O)c1` [DESMETHOXYYANGONIN], the MIC in assay [3] stood at 4 µg/mL (≈ 17.5 µM). As to `COc1cc2oc(=O)ccc2cc1CC=C(C)C` [SUBEROSIN], in assay [3], the minimal inhibitory concentration (MIC) is 16 µg/mL (≈ 65.5 µM). Consider `COc1ccc2c(/C=C/c3ccc(OC(C)CN(C)C)cc3)c(-c3ccccc3)c(=O)oc2c1` (stereo not drawn), for which the IC50 in the assay with HEK293 worked out at 5 µg/mL (≈ 11 µM). Also, in assay [1], the MIC was 7.5 µg/mL (≈ 16.5 µM).

In the case of `COc1ccc(/C=C/C(=O)c2ccc(O)cc2O)cc1`, the “growth inhibition (GI)” value in assay [2] was “inactive”. As for `C=CC(C)(C)c1cc(/C=C/C(=O)c2ccc(O)cc2)c(OC)cc1O` [LICOAGROCHACONE A], in assay [3], the MIC came to 7.1 µg/mL (≈ 21 µM). With `CN[C@@H]1[C@H](O[C@H]2[C@H](O[C@H]3[C@H](O)[C@@H](O)[C@H](N=C(N)N)[C@@H](O)[C@@H]3N=C(N)N)O[C@@H](C)[C@]2(O)C=O)O[C@@H](CO)[C@H](O)[C@H]1O` [STREPTOMYCIN], the MIC in assay [1] was determined as 2 µg/mL (≈ 3.44 µM). Regarding `COc1ccc2c(/C=C/c3ccc(OC(C)=O)cc3)c(-c3ccccc3)c(=O)oc2c1`, the “growth inhibition (GI)” value in assay [2] was “inactive”. Take `CC(C)=CCOc1c2ccoc2cc2oc(=O)ccc12` [ISOIMPERATORIN]: the MIC in assay [3] is 64 µg/mL (≈ 237 µM).

On to `CO[C@H]1/C=C/O[C@@]2(C)Oc3c(C)c(O)c4c(O)c(c(/C=N/N5CCN(C)CC5)c(O)c4c3C2=O)NC(=O)/C(C)=C\C=C\[C@H](C)[C@H](O)[C@@H](C)[C@@H](O)[C@@H](C)[C@H](OC(C)=O)[C@@H]1C` [RIFAMPIN], for which the MIC in assay [1] was 2 µg/mL (≈ 2.43 µM).

`CCCCNC(=O)COc1ccc(/C=C(/C(=O)c2ccc(OC)cc2)c2ccccc2)cc1`: in assay [2], the “growth inhibition (GI)” value is “inactive”. Consider `CC(C)=CCC/C(C)=C/CC/C(C)=C/Cc1c(O)c2ccccc2oc1=O`, for which the MIC in the assay with Mycobacterium sp. stood at 2 µg/mL (≈ 5.46 µM). For `COc1ccc2c(/C=C/c3ccc(OCCN4CCCCC4)cc3)c(-c3ccccc3)c(=O)oc2c1`, the Ratio in assay [4] was found to be 2.85. Also, the half-maximal inhibitory concentration (IC50) in the assay with HEK293 is 5 µg/mL (≈ 10.4 µM). The MIC in assay [1] is 3.5 µg/mL (≈ 7.27 µM). `COc1ccc(C(=O)/C=C/c2ccc(O)cc2)c(O)c1`: in assay [2], the “growth inhibition (GI)” value was “inactive”. Turning to `COc1ccc(C(=O)/C(=C/c2ccc(OCC(=O)O)cc2)c2ccccc2)cc1`, the minimum inhibitory concentration (MIC) in assay [1] was 250 µg/mL (≈ 644 µM). `COc1ccc(/C=C/c2c(-c3ccccc3)c(=O)oc3cc(O)ccc23)cc1`: the half-inhibitory concentration (IC50) in the assay with HEK293 was greater than 250 µg/mL. In assay [1], the MIC came to 125 µg/mL (≈ 337 µM). As for `COc1cc(CCc2ccc3c(c2)OCO3)oc(=O)c1`, in assay [3], the MIC was 32 µg/mL (≈ 117 µM). Consider `COc1ccc2c(/C=C/c3ccc(O)cc3)c(-c3ccccc3)c(=O)oc2c1`, for which, in assay [4], the Ratio amounted to 16. In the assay with HEK293, the half-inhibitory concentration (IC50) is greater than 250 µg/mL. For the same compound, in assay [1], the minimal inhibitory concentration (MIC) came to 30 µg/mL (≈ 81 µM).
